Laboratory results taken from US7202093B2, “Method for labeling phosphorylated peptides, method for selectively adsorbing phosphorylated peptides, complex compounds used in the methods, process for producing the complex compounds, and raw material compounds for the complex compounds” (Kabushiki Kaisha Nard Kenkyusho, priority 2003, dated 2007).
No end group written: not given here.

Columns and labels:
Assay type in all cases: binding
[1] = test system: α-casein (phosphorylated), β-casein (phosphorylated), pepsin (phosphorylated); experiment: 10% native-polyacrylamide gel electrophoresis, gel stained and imaged by fluoro image analyzer (Experimental Example 3); conditions: ten protein samples
Experimental: First, prepared were gels for electrophoresis, pH buffer for electrophoresis, and a coloring solution for dissolving samples under the same condition as in Experimental Example 1.
Next, 2 μg each of 1: Bovine Serum Albumin, 2: Human Serum Albumin, 3: carbonic anhydrase, 4: β-galactosidase, 5: α-casein (phosphorylated), 6: α-casein (de-phosphorylated), 7: β-casein (phosphorylated), 8: β-casein (de-phosphorylated), 9: pepsin (phosphorylated), and 10: pepsin (de-phosphorylated) was dissolved in the coloring solution to prepare samples. The respective samples were plotted on the gel. Then, a constant electric current of 40 mA was applied until the coloring marker was flowed.
The obtained gel was immersed in a 10 mM Tris-acetate buffer (pH=7.4) containing 1 μM of N,N,N′-tri(2-pyridylmethyl)-N′-[5-N″-(2-N-5-fluoresceinylthioureidoethyl)carbamoyl-2-pyridylmethyl]-1,3-diamopropane-2-ol obtained in Production Example 8-1 and 100 μM zinc acetate for 30 minutes. Thereafter, the gel was taken out from the solution. This gel was washed with 100 mL of 10 mM Tris-acetate buffer (pH=7.4) for 10 minutes twice. Thereafter, a fluorescent image of the gel was photographed by using a fluoro image analyzer FLA-5000 (Fuji Photo Film Co., Ltd.) at an excitation wavelength of 473 nm with use of a fluorescence detecting filter of 510 nm. […]

[2] = test system: inventive complex compound (compound of Production Example 3-1 + zinc acetate) bonded to Streptavidin agarose; experiment: Selective adsorption of peptides on Streptavidin agarose carrying the inventive zinc complex, fractions quantified by HPLC (Experimental Example 2); conditions: for isolation/recovery rate of the peptide to the total amount, fraction 1: filtrate of sample in 5.0 mM Tris-acetate buffer pH 7.4; for isolation/recovery rate of the peptide to the total amount, fraction 1 / isolation/recovery rate of the peptide to the total amount, fraction 5 / isolation/recovery rate of the peptide to the total amount, fraction 2 / isolation/recovery rate of the peptide to the total amount, fraction 6 / isolation/recovery rate of the peptide to the total amount, fraction 3 / isolation/recovery rate of the peptide to the total amount, fraction 4: agarose with zinc complex of Production Example 3-1; for isolation/recovery rate of the peptide to the total amount, fraction 5: first filtration with 1.0 mM phosphoric acid-sodium hydroxide buffer pH 7.4, 0.50M NaNO3; for isolation/recovery rate of the peptide to the total amount, fraction 2: first filtration with 5.0 mM Tris-acetate buffer pH 7.4, 0.50M NaNO3; for isolation/recovery rate of the peptide to the total amount, fraction 6: second filtration with 1.0 mM phosphoric acid-sodium hydroxide buffer pH 7.4, 0.50M NaNO3; for isolation/recovery rate of the peptide to the total amount, fraction 3: second filtration with 5.0 mM Tris-acetate buffer pH 7.4, 0.50M NaNO3; for isolation/recovery rate of the peptide to the total amount, fraction 4: third filtration with 5.0 mM Tris-acetate buffer pH 7.4, 0.50M NaNO3
Experimental: (§1) The suspension (0.3 mL) containing Streptavidin agarose (quantity of the bonded moiety of biotin: 60 to 120 nmol/mL) and a buffer (Sigma-Aldrich Co.) was charged in a centrifugal filter unit (volume: 0.5 mL filter pore diameter: 0.22 μm). The filter unit was subjected to centrifugal separation at centrifugal acceleration of 2,000×g for 15 seconds, followed by filtration of the suspension. 5.0 mM Tris-acetate buffer (pH=7.4, 0.30 mL) was charged in the filter unit, then the filter unit was subjected to centrifugal separation at 2,000×g for 15 seconds and filtration for washing. This centrifugal separation and filtration step for washing was cyclically repeated for 5 times.
To the filter unit, charged was 5.0 mM Tris-acetate buffer (pH=7.4, 0.30 mL) dissolving 120 nmol/mL of the compound obtained in Production Example 3-1 and 500 nmol/mL of zinc acetate. The filter unit was brought to an equilibrium state for 5 minutes, and then, subjected to centrifugal separation at 2,000×g for 15 seconds and filtration. Next, 5.0 mM Tris-acetate buffer (pH=7.4, 0.30 mL) was charged in the filter unit, and subjected to centrifugal separation at 2,000×g for 15 seconds and filtration for washing. This centrifugal separation and filtration step for washing was cyclically repeated for 5 times. Further, 5.0 mM Tris-acetate buffer (pH=7.4, 0.30 mL) dissolving 10 nmol/mL of zinc acetate was charged in the filter unit, and subjected to centrifugal separation at 2,000×g for 15 seconds and filtration for washing. This centrifugal separation and filtration step for washing was cyclically repeated for 5 times.
To the filter unit, charged was 5.0 mM Tris-acetate buffer (pH=7.4, 0.30 mL) dissolving non-phosphorylated peptide p60c (p60c-src peptide 521–533, 14 nmol/mL) and phosphorylated peptide P-p60c (O-phosphoryl p60c-src peptide 521–533, 12 nmol/mL), as samples. The filter unit was brought to an equilibrium state for 5 minutes, and then, subjected to centrifugal separation at 2,000×g for 15 seconds and filtration. The obtained filtrate was taken out as a fraction 1.
Next, 5.0 mM Tris-acetate buffer (pH=7.4, 0.50M NaNO3, 0.30 mL) was charged in the filter unit, and the filter unit was subjected to centrifugal separation at 2,000×g for 15 seconds and filtration for 3 times. The filtrate obtained after the first filtration was taken out as a fraction 2, the filtrate after the second filtration was taken out as a fraction 3, and the filtrate after the third filtration was taken out as a fraction 4.
Furthermore, 1.0 mM buffer containing phosphoric acid-sodium hydroxide (pH=7.4, 0.50M NaNO3, 0.30 mL) was charged in the filter unit, and the filter unit was subjected to centrifugal separation at 2,000×g for 15 seconds and filtration for 2 times. The filtrate obtained after the first filtration was taken out as a fraction 5, and the filtrate after the second filtration was taken out as a fraction 6.
The contents of the peptide in the respective fractions 1 through 6 were quantitatively determined by high performance liquid chromatography (HPLC).
(§2) Analyzing conditions according to HPLC: • column: Capcell Pak C18 type UG80, 4.6 mm (diameter)×150 mm • mobile phase: acetonitrile:water=14:86(v/v), 0.1%(v/v) of trifluoroacetic acid • flow rate: 1 mL/min. • column temperature: 40° C. • detecting method: UV 266 nm • retention time: P-p60c (5.3 min.). p60c (13.4 min.)

Streptavidin agarose = biological target: T1, Streptavidin agarose (Streptomyces avidinii, UniProt P22629); experiment: Same fractionation on Streptavidin agarose without the inventive complex compound (Comparative Example 1); conditions: inventive complex compound not included; for isolation/recovery rate of the peptide, fraction 7: step as fraction 1 (sample filtrate, Tris-acetate pH 7.4); for isolation/recovery rate of the peptide, fraction 8: step as fraction 2 (Tris-acetate, 0.50M NaNO3, first); for isolation/recovery rate of the peptide, fraction 9: step as fraction 3 (Tris-acetate, 0.50M NaNO3, second); for isolation/recovery rate of the peptide, fraction 10: step as fraction 4 (Tris-acetate, 0.50M NaNO3, third); for isolation/recovery rate of the peptide, fraction 11: step as fraction 5 (phosphate buffer, first); for isolation/recovery rate of the peptide, fraction 12: step as fraction 6 (phosphate buffer, second)
T1 construct: purchased Sigma-Aldrich Co
T1 sequence (P22629 25-183): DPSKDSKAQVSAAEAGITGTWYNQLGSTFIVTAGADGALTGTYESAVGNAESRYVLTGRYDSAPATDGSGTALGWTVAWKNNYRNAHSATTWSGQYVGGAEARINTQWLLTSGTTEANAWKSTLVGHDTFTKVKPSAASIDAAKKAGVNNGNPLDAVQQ
Experimental: as §2
as §1, with “of biotin;” for “of biotin:”, “0.5 mL,” for “0.5 mL”, “at” for “at centrifugal acceleration of”, “suspension. Then,” for “suspension.”, “unit, and” for “unit, then”
A process similar to the process in Experiment Example 2 was conducted with use of samples equivalent to the samples used in Experimental Example 2, using a filter unit (in this Comparative Example, the inventive complex compound was not included). Thus, fractions 7 through 12 were obtained.
HPLC analysis was conducted with respect to the fractions 7 through 12 in a similar manner as Experimental Example 2.

Row | Compound | identification (fluorescent labeling) of proteins in the gel ([1]; 1 μM compound + 100 μM zinc acetate, 10 mM Tris-acetate pH 7.4, 30 minutes, excitation 473 nm, FIG. 9 gel A) | dyeing of proteins in the gel by the conventional dyeing process ([1]; same gel, FIG. 9 gel B) | selective adsorption of phosphorylated peptide ([2]; mixed sample of P-p60c and p60c, complex formed with zinc acetate, bonded to Streptavidin agarose) | isolation/recovery rate of the peptide, fraction 7 (Streptavidin agarose) [%] | isolation/recovery rate of the peptide, fraction 8 (Streptavidin agarose) [%] | isolation/recovery rate of the peptide, fraction 9 (Streptavidin agarose) [%] | isolation/recovery rate of the peptide, fraction 10 (Streptavidin agarose) [%] | isolation/recovery rate of the peptide, fraction 11 (Streptavidin agarose) [%] | isolation/recovery rate of the peptide, fraction 12 (Streptavidin agarose) [%] | isolation/recovery rate of the peptide to the total amount, fraction 1 [2] [%] | isolation/recovery rate of the peptide to the total amount, fraction 5 [2] [%] | isolation/recovery rate of the peptide to the total amount, fraction 2 [2] [%] | isolation/recovery rate of the peptide to the total amount, fraction 6 [2] [%] | isolation/recovery rate of the peptide to the total amount, fraction 3 [2] [%] | isolation/recovery rate of the peptide to the total amount, fraction 4 [2] [%]
1 | O=C(NCCNC(=S)Nc1ccc(-c2c3ccc(=O)cc-3oc3cc(O)ccc23)c(C(=O)O)c1)c1ccc(CN(Cc2ccccn2)CC(O)CN(Cc2ccccn2)Cc2ccccn2)nc1 (stereo not drawn) [Production Example 8-1, N,N,N′-Tri(2-pyridylmethyl)-N′-[5-N″-(2-N-5-fluoresceinylthioureidoethyl)carbamoyl-2-pyridylmethyl]-1,3-diaminopropane-2-ol] | only 5: α-casein (phosphorylated), 7: β-casein (phosphorylated) and 9: pepsin (phosphorylated) to all of which the phosphoric acid has been bonded were identified exclusively | – | – | – | – | – | – | – | – | – | – | – | – | – | –
2 | Coomassie brilliant blue | – | all the peptides were dyed | – | – | – | – | – | – | – | – | – | – | – | – | –
3 | N,N,N′-Tri(2-pyridylmethyl)-N′-[5-N″-2-(6-D-biotinamidohexacarboxyamidoethyl)carbamoyl-2-pyridylmethyl]-1,3-diaminopropane-2-ol [Production Example 3-1] | – | – | can adsorb selectively a phosphorylated peptide | – | – | – | – | – | – | – | – | – | – | – | –
4 | P-p60c: phosphorylated peptide P-p60c (O-phosphoryl p60c-src peptide 521–533) (DYFTSTEPQYQPG; also: O-phosphotyrosine, position not given here; UniProt P12931 521-533, looked up, fragment) | – | – | – | 83 | 17 | 0 | 0 | 0 | 0 | 0 | 83 | 0 | 17 | 0 | 0
5 | p60c: non-phosphorylated peptide p60c (p60c-src peptide 521–533) (DYFTSTEPQYQPG; UniProt P12931 521-533, looked up, fragment) | – | – | – | 75 | 20 | 5 | 0 | 0 | 0 | 67 | 0 | 24 | 0 | 9 | 0
